In ChEMBL document CHEMBL5126599, “Development of S-aryl dithiocarbamate derived novel antiproliferative compound exhibiting tubulin bundling” (Bioorg Med Chem, 2022):
Calls of active or inactive are those of the source. The rule behind the calls is not given here.

Key:
A549 = assay: Antiproliferative activity against human A549 cells assessed as reduction in cell viability incubated for 72 hrs by MTT assay; assay type: functional, cell-based; conditions: A549, 72 h
HeLa [1] = assay: Induction of cell cycle arrest in human HeLa cells assessed as increase in cyclin B1 expression at 0.432 to 0.864 uM for 72 hrs by Western blot analysis; assay type: functional, cell-based; conditions: dose 0.432-0.864 µM, DDE = dose-dependent effect
HeLa [2] = assay: Induction of apoptosis in human HeLa cells assessed as fold change as increase in necrotic cells at 0.432 to 0.864 uM for 72 hrs by Annexin-V/PI staining based fluorescence microscopy relative to control; assay type: functional; conditions: dose 0.432-0.864 µM
HeLa [3] = assay: Induction of cell cycle arrest in human HeLa cells assessed as accumulation at G2/M phase at 0.432 to 0.864 uM for 72 hrs by DAPI staining based fluorescence microscopy; assay type: functional; conditions: dose 0.432-0.864 µM, DDE = dose-dependent effect
HeLa [4] = assay: Induction of apoptosis in human HeLa cells assessed as fold change as increase in apoptotic cells at 0.432 to 0.864 uM for 72 hrs by PI staining based flow cytometry relative to control; assay type: functional; conditions: dose 0.432-0.864 µM
HeLa [5] = assay: Induction of apoptosis in human HeLa cells assessed as increase in p21 protein expression at 0.432 to 0.864 uM for 72 hrs by Western blot analysis; assay type: functional, cell-based; conditions: dose 0.432-0.864 µM
Tubulin (Homo sapiens) [6] = target: T1, Tubulin (Homo sapiens) (UniProt P68371+Q9H4B7+P0DPH7+P68366+Q13509+Q71U36+P04350+Q3ZCM7+P07437+P68363+Q9BQE3+Q6PEY2+Q13885+Q9BVA1+Q9BUF5); assay: Induction of microtubule stabilization in human HeLa cells assessed as increase in alpha-tubulin level in cell pellet at 0.5 to 1 uM for 48 hrs by Western blot analysis; assay type: cell-based; conditions: dose 0.5-1 µM, DDE = dose-dependent effect
HeLa [7] = assay: Antiproliferative activity against human HeLa cells assessed as reduction in number of colonies at 0.432 to 0.864 uM for 72 hrs with media renew every 2 days and measured upto 2 weeks by crystal violet staining based microscopic analysis; assay type: functional, cell-based; conditions: dose 0.432-0.864 µM, DDE = dose-dependent effect
HeLa [8] = assay: Induction of apoptosis in human HeLa cells assessed as increase in p53 protein expression at 0.432 to 0.864 uM for 72 hrs by Western blot analysis; assay type: functional, cell-based; conditions: dose 0.432-0.864 µM, DDE = dose-dependent effect
HeLa [9] = assay: Induction of cell cycle arrest in human HeLa cells assessed as fold change as increase in accumulation at G2/M phase at 0.432 to 0.864 uM for 72 hrs by PI staining based flow cytometry relative to control; assay type: functional; conditions: dose 0.432-0.864 µM
MCF7 = assay: Antiproliferative activity against human MCF7 cells assessed as reduction in cell viability incubated for 72 hrs by MTT assay; assay type: functional, cell-based; conditions: MCF7, 72 h
Tubulin (Homo sapiens) [10] = target: T1, Tubulin (Homo sapiens); assay: Induction of microtubule stabilization in human HeLa cells assessed as microtubule bundling at 0.5 to 1 uM for 24 hrs by DAPI staining based fluorescence microscopy; assay type: cell-based; conditions: dose 0.5-1 µM, DDE = dose-dependent effect
MDA-MB-231 = assay: Antiproliferative activity against human MDA-MB-231 cells assessed as reduction in cell viability incubated for 72 hrs by MTT assay; assay type: functional, cell-based; conditions: MDA-MB-231, 72 h
HeLa [11] = assay: Antiproliferative activity against human HeLa cells assessed as reduction in cell viability incubated for 72 hrs by MTT assay; assay type: functional, cell-based
Tubulin (Homo sapiens) [12] = target: T1, Tubulin (Homo sapiens); assay: Induction of microtubule stabilization in human HeLa cells assessed as increase in alpha-tubulin level in cell pellet at 0.5 uM for 48 hrs by Western blot analysis; assay type: cell-based; conditions: DDE = dose-dependent effect
Tubulin (Homo sapiens) [13] = target: T1, Tubulin (Homo sapiens); assay: Induction of microtubule stabilization in human HeLa cells assessed as microtubule bundling at 0.5 uM for 24 hrs by DAPI staining based fluorescence microscopy; assay type: cell-based

Row | SMILES | IC50 (A549) | also measured
1 | CCCCN(CCCC)C(=S)Sc1ccccc1 | 9760 nM | 
2 | S=C(Sc1ccccc1)N1CCCCC1 | 7930 nM | 
3 | CC(C)(C)OC(=O)N1CCN(C(=S)Sc2ccc(Br)cc2)CC1 | 1820 nM | 
4 | CC(C)(C)c1ccc(SC(=S)N2CCCCC2)cc1 | 9130 nM | 
5 | Cc1ccc(SC(=S)N2CCN(C(=O)OC(C)(C)C)CC2)cc1 | 2100 nM | 
6 | Cc1cc(C)c(SC(=S)N2CCN(C(=O)OC(C)(C)C)CC2)c(C)c1 | 1460 nM | 
7 | CC(C)(C)OC(=O)N1CCN(C(=S)Sc2ccc(F)cc2)CC1 | 1560 nM | 
8 | Cc1ccccc1SC(=S)N1CCN(C(=O)OC(C)(C)C)CC1 | 2270 nM | 
9 | S=C(Sc1ccccc1)N1CCOCC1 | 2520 nM | 
10 | CC(C)(C)OC(=O)N1CCN(C(=S)Sc2ccccc2Cl)CC1 | 1560 nM | 
11 | CC(=O)O[C@H]1C(=O)[C@@]2(C)[C@H]([C@H](OC(=O)c3ccccc3)[C@]3(O)C[C@H](OC(=O)[C@H](O)[C@@H](NC(=O)c4ccccc4)c4ccccc4)C(C)=C1C3(C)C)[C@]1(OC(C)=O)CO[C@@H]1C[C@@H]2O |  | Activity (Tubulin (Homo sapiens) [12]): Dde; Activity (Tubulin (Homo sapiens) [13]): Active

Continued, in another order:

Row | IC50 (A549) | SMILES | also measured
12 | 914 nM | Cc1cccc(SC(=S)N2CCN(C(=O)OC(C)(C)C)CC2)c1 | 
13 | 539 nM | Cc1ccc(C)c(SC(=S)N2CCN(C(=O)OC(C)(C)C)CC2)c1 | 
14 | 634 nM | CC(C)(C)OC(=O)N1CCN(C(=S)Sc2cccc(Cl)c2)CC1 | 
15 | 1070 nM | CC(C)(C)OC(=O)N1CCN(C(=S)Sc2ccc(Cl)cc2)CC1 | 
16 | 447 nM | CC(C)(C)OC(=O)N1CCN(C(=S)Sc2ccccc2)CC1 | Activity (HeLa [1]): Dde; fold change (FC) (HeLa [2]): 3; Activity (HeLa [3]): Dde; fold change (FC) (HeLa [4]): 4; Activity (HeLa [5]): Active; Activity (Tubulin (Homo sapiens) [6]): Dde; Activity (HeLa [7]): Dde; Activity (HeLa [8]): Dde; fold change (FC) (HeLa [9]): 4; IC50 (MCF7): 1750 nM; Activity (Tubulin (Homo sapiens) [10]): Dde; IC50 (MDA-MB-231): 615 nM; IC50 (HeLa [11]): 432 nM
17 | 769 nM | CC(C)(C)OC(=O)N1CCN(C(=S)Sc2ccc(C(C)(C)C)cc2)CC1 | 
18 | 712 nM | COc1ccc(SC(=S)N2CCN(C(=O)OC(C)(C)C)CC2)cc1 | 
